The values that follow come from patent US20150259645A1, “METHOD FOR INDUCING IL-2-FREE PROLIFERATION OF GAMMA DELTA T CELLS” (INSERM (INSTITUT NATIONAL DE LA SANTÉ ET DE LA RECHERCHE …, priority 2012, published 2015).

For this assay, the system named is Vγ9Vδ2 T lymphocytes. As to the kind of experiment: CFSE dilution proliferation assay in PBMC culture, flow cytometry. The settings on record: 100 nM BrHPP; six days culture of PBMC; FIG. 1A. Format: cell-based, human. As for the experimental part:
Fresh blood samples were collected from healthy donors, and PBMC were prepared on a Ficoll-Paque density gradient (Amersham Biosciences AB, Upssala, Sweden) by centrifugation (800 g, 30 min at room temperature).
Cell cultures were performed in complete medium: RPMI 1640 supplemented by penicillin 100 UI/ml, streptomycin 100 μg/ml, L-glutamin 2 mM, sodium pyruvate 1 mM and 10% FCS.
PBMC or PBL were labeled with 0.125 μM CFSE (Invitrogen, France) for 8 min at 37° C. and cultured in 96-well plates (3.10^5 cells per well) in 200 μl of complete medium with or without BrHPP [100 nM], IL-33 [0-1000 ng/ml] and with or without rhIL-2 [10 UI/ml] (Sanofi Aventis, France). After six days in culture CFSE dilution was evaluated in γδ T cells (CD3^+ γ9 TCR cells) by flow cytometry.
The IL-33 forms used in this example was the natural cleavage product of human IL-33 (IL-33 aa 95-270) and the truncated form of human IL-33 (IL-33 aa 112-270).
Anti-TCR γ9-APC and anti-CD3-Pacific blue were used to select Vγ9Vδ2 T lymphocytes by flow cytometry.
We studied the effect of IL-33 in combination with the specific phosphoantigen, BrHPP, on the proliferation of human Vγ9Vδ2 T lymphocytes. […] After six days in culture, the proliferation of Vγ9Vδ2 T lymphocytes was analyzed by the reduction of the CFSE fluorescence intensity on the Vγ9Vδ2 T lymphocytes gated by flow cytometry.
In general terms: A flow cytometer gives signals particle by particle.

For the molecule `CC(O)(CBr)CCOP(=O)(O)OP(=O)(O)O` (stereo not shown) [BrHPP], the “proliferation of Vγ9Vδ2 T lymphocytes (CFSE dilution)” value is “induces the proliferation”.
